The values below come from patent US8133884B2, “Compounds for the treatment of hepatitis C” (priority 2008, dated 2012).

Like-named read-outs stand apart in the source and are kept apart here.

The test system of this assay is 1a replicon. The assay can be described thus: HCV replicon assay with a 1a replicon. The assay is classed as cell-based. To be noted: Hepatitis C virus. The text has this:
To perform the HCV FRET screening assay, 96-well cell culture plates were used, The FRET peptide (Anaspec, Inc.) (Taliani et al., Anal. Biochem., 240:60-67 (1996)) contains a fluorescence donor, EDANS, near one end of the peptide and an acceptor, DABCYL, near the other end. The fluorescence of the peptide is quenched by […] resonance energy transfer (RET) between the donor and the acceptor, but as the NS3 protease cleaves the peptide the products are released from RET quenching and the fluorescence of the donor becomes apparent. The assay reagent was made as follows: 5× cell Luciferase cell culture lysis reagent from Promega (#E153A) diluted to 1× with dH2O, NaCl added to 150 mM final, the FRET peptide diluted to 20 μM final from a 2 mM stock.
To prepare plates, HCV replicon cells, with or without a Renilla luciferase reporter gene, were trypsinized and placed into each well of a 96-well plate with titrated test compounds added in columns 3 through 12; columns 1 and 2 contained a control compound (HCV protease inhibitor), and the bottom row contained cells without compound. The plates were then placed in a CO2 incubator at 37° C.
Subsequent to addition of the test compounds described above (FRET Assay Preparation), at various times the plate was removed and Alamar blue solution (Trek Diagnostics, #00-100) was added per well as a measure of cellular toxicity. After reading in a CYTOFLUOR® 4000 instrument (PE Biosystems), plates were rinsed with PBS and then used for FRET assay by the addition of 30 ul of the FRET peptide assay reagent described above (FRET Assay Preparation) per well. The plate was then placed into the CYTOFLUOR® 4000 instrument which had been set to 340 excite/490 emission, automatic mode for 20 cycles and the plate read in a kinetic mode. Typically, the signal to noise using an endpoint analysis after the reads was at least three-fold. Alternatively, after Alamar blue reading, plates were rinsed with PBS, 50 ul of DMEM (high glucose) without phenol red was added and plates were then used for luciferase assay using the Promega DUAL-GLO® Luciferase Assay System.
Compound analysis was determined by quantification of the relative HCV replicon inhibition and the relative cytotoxicity values. To calculate cytoxicity values, the average Alamar Blue fluorescence signals from the control wells were set as 100% non-toxic. The individual signals in each of the compound test wells were then divided by the average control signal and multiplied by 100% to determine […]. To calculate the HCV replicon inhibition values, an average background value was obtained from the two wells containing the highest amount of HCV protease inhibitor at the end of the assay period. These numbers were similar to those obtained from naïve Huh-7 cells. […]
Background: A replicon is a self-replicating genome or part of one, used to study replication in cells.

The mark [1] stands for this setting: determined similarly but with a 1a replicon, class symbol, read-out: EC50.

`COc1ccc2c(c1)C=C(c1c(C(=O)N3C[C@@H](C)O[C@@H](C)C3)c(C(C)C)nn1C1CC1)Cn1c-2c(C2CCCCC2)c2ccc(C(=O)NS(=O)(=O)C(C)C)cc21`: under setting [1], the half-maximal effective concentration (EC50) is 1.7 to 500 nM.

As to `COc1ccc2c(c1)C=C(c1c(C(=O)N3C[C@@H](C)N(C)[C@@H](C)C3)c(C(C)C)nn1C1CC1)Cn1c-2c(C2CCCCC2)c2ccc(C(=O)NS(=O)(=O)C(C)C)cc21`, under setting [1], the EC50 was in the range of 1.7 to 500 nM.

In the case of `COc1ccc2c(c1)C=C(c1c(C(=O)N3C4CCC3CN(C)C4)c(C(C)C)nn1C1CC1)Cn1c-2c(C2CCCCC2)c2ccc(C(=O)NS(=O)(=O)C(C)C)cc21`, the EC50 was 1.7 to 500 nM.

`COc1ccc2c(c1)C=C(c1c(C(=O)N3C4CCC3COC4)c(C(C)C)nn1C1CC1)Cn1c-2c(C2CCCCC2)c2ccc(C(=O)NS(=O)(=O)C(C)C)cc21`: the EC50 is 1.7 to 500 nM.

In general, EC50 refers to the concentration that produces a half-maximal response.
